Data on 29 compounds can be found in US8748426B2, “Inhibitors of diacylglycerol acyl transferase” (Piramal Enterprises Limited, priority 2009, dated 2014).

A word on the inhibition: it is the percentage by which the read-out fell short of the control.

One assay concerns the target T1, hDGAT1 (Homo sapiens, UniProt O75907).
T1 sequence (O75907 1-488): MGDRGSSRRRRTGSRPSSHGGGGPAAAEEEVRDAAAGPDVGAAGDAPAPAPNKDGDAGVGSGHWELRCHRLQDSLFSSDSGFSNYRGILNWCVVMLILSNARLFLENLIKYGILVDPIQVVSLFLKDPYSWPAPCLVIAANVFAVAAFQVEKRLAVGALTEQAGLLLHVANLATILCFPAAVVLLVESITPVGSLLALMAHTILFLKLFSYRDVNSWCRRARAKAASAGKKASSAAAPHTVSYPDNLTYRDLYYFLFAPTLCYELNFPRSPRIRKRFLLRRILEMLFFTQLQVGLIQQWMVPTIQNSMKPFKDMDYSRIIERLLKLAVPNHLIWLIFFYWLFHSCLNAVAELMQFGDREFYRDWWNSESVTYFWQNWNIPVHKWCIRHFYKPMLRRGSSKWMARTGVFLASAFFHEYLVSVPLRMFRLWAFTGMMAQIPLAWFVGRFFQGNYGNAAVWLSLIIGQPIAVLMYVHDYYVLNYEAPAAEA
The experiment in a line: In-vitro DGAT1 assay (14C oleoyl CoA, hDGAT1 microsomes from Sf9 cells). The conditions noted are these: at 1 μM.
In the case of `CC(C)(C(=O)O)N1Cc2ccc(-c3ccc(NC(=O)c4ccc(-c5ccccc5)cc4)cc3)cc2C1=O` [Example 517, 2-(6-(4-([1,1′-Biphenyl]-4-ylcarboxamido)phenyl)-1-oxoisoindolin-2-yl)-2-methyl propanoic acid], the “% Inhibition of hDGAT1” value was “++ (>50% Inhibition)”.
Still for that read-out and setting: the value for `O=C(Nc1ccc(-c2ccc3c(c2)C(=O)N(C2(C(=O)O)CCCC2)C3)cc1)c1ccc(-c2ccccc2)cc1` [Example 529, 1-(6-(4-([1,1′-Biphenyl]-4-ylcarboxamido)phenyl)-1-oxoisoindolin-2-yl)cyclopentane carboxylic acid] was “++ (>50% Inhibition)”; that for `CC(C)[C@H](C(=O)O)N1Cc2ccc(-c3ccc(NC(=O)c4ccc(-c5ccccc5)cc4)cc3)cc2C1=O` [Example 541, (R)-2-(6-(4-([1,1′-Biphenyl]-4-ylcarboxamido)phenyl)-1-oxoisoindolin-2-yl)-3-methylbutanoic acid] was “++ (>50% Inhibition)”.
Same read-out and setting: the result for `O=C(Nc1ccc(-c2ccc3c(c2)C(=O)N(C2CCCC(C(=O)O)C2)C3)cc1)c1ccc(-c2ccccc2)cc1` (centres unmarked) [Example 545, 3-(6-(4-([1,1′-Biphenyl]-4-ylcarboxamido)phenyl)-1-oxoisoindolin-2-yl)cyclo hexane carboxylic acid] reads “++ (>50% Inhibition)”; that for `O=C(Nc1ccc(-c2ccc3c(c2)C(=O)N(C2CCC(C(=O)O)CC2)C3)cc1)c1ccc(-c2ccccc2)cc1` (centres unmarked) [Example 557, (1r,4r)-4-(6-(4-([1,1′-Biphenyl]-4-ylcarboxamido)phenyl)-1-oxoisoindolin-2-yl)cyclohexanecarboxylic acid], “++ (>50% Inhibition)”; that for `O=C(Nc1ccc(-c2ccc3c(c2)C(=O)N([C@H]2CC[C@H](C(=O)O)CC2)C3)cc1)c1cccc(Cl)c1` [Example 559, (1r,4r)-4-(6-(4-(3-Chlorobenzamido)phenyl)-1-oxoisoindolin-2-yl)cyclohexane carboxylic acid], “++ (>50% Inhibition)”.
Consider `O=C(Nc1ccc(-c2ccc3c(c2)C(=O)N([C@H]2CC[C@H](C(=O)O)CC2)C3)cc1)c1ccc(Cl)cc1` [Example 561, (1r,4r)-4-(6-(4-(4-Chlorobenzamido)phenyl)-1-oxoisoindolin-2-yl)cyclohexane carboxylic acid], for which the “% Inhibition of hDGAT1” value was “+ (10-50% Inhibition)”.
The same measure, in the same setting: the value for `O=C(Nc1ccc(-c2ccc3c(c2)C(=O)N([C@H]2CC[C@H](C(=O)O)CC2)C3)cc1)c1ccc(C(F)(F)F)cc1` [Example 563, (1r,4r)-4-(1-Oxo-6-(4-(4-(trifluoromethyl)benzamido)phenyl)isoindolin-2-yl)cyclohexanecarboxylic acid] was “+ (10-50% Inhibition)”.
Take `O=C(Nc1ccc(-c2ccc3c(c2)C(=O)N(C24C[C@@H]5C[C@@H](CC(C(=O)O)(C5)C2)C4)C3)cc1)c1cccc(Cl)c1` [Example 567, (1r,3s,5R,7S)-3-(6-(4-(3-Chlorobenzamido)phenyl)-1-oxoisoindolin-2-yl)adamantane-1-carboxylic acid]: the “% Inhibition of hDGAT1” value is listed as “+ (10-50% Inhibition)”.
The same measure, in the same setting: the value for `O=C(Nc1ccc(-c2ccc3c(c2)C(=O)N(C24C[C@@H]5C[C@@H](CC(C(=O)O)(C5)C2)C4)C3)cc1)c1ccc(Cl)cc1` [Example 569, (1r,3s,5R,7S)-3-(6-(4-(4-Chlorobenzamido)phenyl)-1-oxoisoindolin-2-yl)adamantane-1-carboxylic acid] was “+ (10-50% Inhibition)”.
Regarding `O=C(Nc1ccc(-c2ccc3c(c2)C(=O)N(C24C[C@@H]5C[C@@H](CC(C(=O)O)(C5)C2)C4)C3)cc1)c1ccc(C(F)(F)F)cc1` [Example 571, (1r,3s,5R,7S)-3-(1-Oxo-6-(4-(4-(trifluoromethyl)benzamido)phenyl)isoindolin-2-yl)adamantane-1-carboxylic acid], the “% Inhibition of hDGAT1” value is reported as “++ (>50% Inhibition)”.
On the same count and under the same terms, the value for `Cc1ccc(C(=O)Nc2ccc(-c3ccc4c(c3)C(=O)N(C35C[C@@H]6C[C@@H](CC(C(=O)O)(C6)C3)C5)C4)cc2)cc1` [Example 572, (1r,3s,5R,7S)-3-(6-(4-(4-Methylbenzamido)phenyl)-1-oxoisoindolin-2-yl)adamantane-1-carboxylic acid] was “++ (>50% Inhibition)”.
The same measure, in the same setting: the value for `O=C(Nc1ccc(-c2ccc3c(c2)C(=O)N(C2(C(=O)O)CCC2)C3)cc1)c1ccc(-c2ccccc2)cc1` [Example 576, 1-(6-(4-([1,1′-Biphenyl]-4-ylcarboxamido)phenyl)-1-oxoisoindolin-2-yl)cyclo butanecarboxylic acid] was “++ (>50% Inhibition)”.
On the same count and under the same terms, the result for `O=C(Nc1ccc(-c2ccc3c(c2)C(=O)N(C2(C(=O)O)CC2)C3)cc1)c1ccc(-c2ccccc2)cc1` [Example 586, 1-(6-(4-([1,1′-Biphenyl]-4-ylcarboxamido)phenyl)-1-oxoisoindolin-2-yl)cyclopropanecarboxylic acid] reads “++ (>50% Inhibition)”.

Still in this assay, the particulars now being: read-out: % Inhibition of hDGAT1.
Turning to `CCCCOc1ccc(C(=O)Nc2cnc(-c3ccc4c(c3)C(=O)N([C@H](C(=O)O)C(C)C)C4)cn2)cc1` [Example 509, (S)-2-(6-(5-(4-Butoxybenzamido)pyrazin-2-yl)-1-oxoisoindolin-2-yl)-3-methylbutanoic acid], the inhibition at 1 µM was above 50%.
With `CC(C)(C)c1ccc(C(=O)Nc2ccc(-c3ccc4c(c3)C(=O)N(C(C)(C)C(=O)O)C4)cc2)cc1` [Example 519, 2-(6-(4-(4-(tert-Butyl)benzamido)phenyl)-1-oxoisoindolin-2-yl)-2-methyl propanoic acid], the inhibition at 1 µM is above 50%.
As for `CC(C)(C(=O)O)N1Cc2ccc(-c3ccc(NC(=O)c4ccc(Cl)cc4)cc3)cc2C1=O` [Example 521, 2-(6-(4-(4-Chlorobenzamido)phenyl)-1-oxoisoindolin-2-yl)-2-methylpropanoic acid], the inhibition at 1 µM was above 50%.
Regarding `CC(C)(C(=O)O)N1Cc2ccc(-c3ccc(NC(=O)c4ccc(OC(F)(F)F)cc4)cc3)cc2C1=O` [Example 523, 2-Methyl-2-(1-oxo-6-(4-(4-(trifluoromethoxy)benzamido)phenyl)isoindolin-2-yl)propanoic acid], the inhibition at 1 µM was in the range of 10 to 50%.
Regarding `CCCCCc1ccc(C(=O)Nc2ccc(-c3ccc4c(c3)C(=O)N(C(C)(C)C(=O)O)C4)cc2)cc1` [Example 525, 2-Methyl-2-(1-oxo-6-(4-(4-pentylbenzamido)phenyl)isoindolin-2-yl)propanoic acid], the inhibition at 1 µM was in the range of 10 to 50%.
Still for that read-out and setting: the result for `CC(C)(C)c1ccc(C(=O)Nc2ccc(-c3ccc4c(c3)C(=O)N(C3(C(=O)O)CCCC3)C4)cc2)cc1` [Example 531, 1-(6-(4-(4-(tert-Butyl)benzamido)phenyl)-1-oxoisoindolin-2-yl)cyclopentane carboxylic acid] reads above 50%.
Still for that read-out and setting: the value for `O=C(Nc1ccc(-c2ccc3c(c2)C(=O)N(C2(C(=O)O)CCCC2)C3)cc1)c1ccc(Cl)cc1` [Example 533, 1-(6-(4-(4-Chlorobenzamido)phenyl)-1-oxoisoindolin-2-yl)cyclopentane carboxylic acid] was above 50%.
Still for that read-out and setting: the result for `O=C(Nc1ccc(-c2ccc3c(c2)C(=O)N(C2(C(=O)O)CCCC2)C3)cc1)c1ccc(OC(F)(F)F)cc1` [Example 535, 1-(1-Oxo-6-(4-(4-(trifluoromethoxy)benzamido)phenyl)isoindolin-2-yl)cyclopentane carboxylic acid] reads above 50%; that for `CCCCCc1ccc(C(=O)Nc2ccc(-c3ccc4c(c3)C(=O)N(C3(C(=O)O)CCCC3)C4)cc2)cc1` [Example 537, 1-(1-Oxo-6-(4-(4-pentylbenzamido)phenyl)isoindolin-2-yl)cyclopentane carboxylic acid], above 50%.
Regarding `O=C(Nc1ccc(-c2ccc3c(c2)C(=O)N(C2CCCC(C(=O)O)C2)C3)cc1)c1cccc(Cl)c1` (centres unmarked) [Example 547, 3-(6-(4-(3-Chlorobenzamido)phenyl)-1-oxoisoindolin-2-yl)cyclohexane carboxylic acid], the inhibition at 1 µM was above 50%.
The same measure, in the same setting: the value for `O=C(Nc1ccc(-c2ccc3c(c2)C(=O)N(C2CCCC(C(=O)O)C2)C3)cc1)c1ccc(Cl)cc1` (centres unmarked) [Example 549, 3-(6-(4-(4-Chlorobenzamido)phenyl)-1-oxoisoindolin-2-yl)cyclohexane carboxylic acid] was above 50%; that for `Cc1oc(-c2ccccc2)nc1C(=O)Nc1ccc(-c2ccc3c(c2)C(=O)N(C2CCCC(C(=O)O)C2)C3)cc1` (centres unmarked) [Example 553, 3-(6-(4-(5-Methyl-2-phenyloxazole-4-carboxamido)phenyl)-1-oxoisoindolin-2-yl)cyclohexanecarboxylic acid] was above 50%; that for `O=C(Nc1ccc(-c2ccc3c(c2)C(=O)N(C2(C(=O)O)CCC2)C3)cc1)c1ccc(Cl)cc1` [Example 578, 1-(6-(4-(4-Chlorobenzamido)phenyl)-1-oxoisoindolin-2-yl)cyclobutane carboxylic acid] was above 50%.
For `O=C(Nc1ccc(-c2ccc3c(c2)C(=O)N(C2(C(=O)O)CCC2)C3)cc1)c1ccc(C(F)(F)F)cc1` [Example 580, 1-(1-Oxo-6-(4-(4-(trifluoromethyl)benzamido)phenyl)isoindolin-2-yl)cyclo butane carboxylic acid], the inhibition at 1 µM was above 50%.
`Cc1ccc(C(=O)Nc2ccc(-c3ccc4c(c3)C(=O)N(C3(C(=O)O)CCC3)C4)cc2)cc1` [Example 582, 1-(6-(4-(4-Methylbenzamido)phenyl)-1-oxoisoindolin-2-yl)cyclobutane carboxylic acid]: the inhibition at 1 µM is above 50%.
